Assay results published in patent publication US20260132140A1, “IMIDAZOLYL-AMINO-PYRAZINE-CARBONITRILS AS CHK-1 INHIBITORS” (BenevolentAI Bio Limited, priority 2022, published 2026).

Key:
human Chk1 kinase = molecular target: T1, human Chk1 kinase (Homo sapiens, UniProt O14757); assay: biochemical
T1 sequence (O14757 1-476): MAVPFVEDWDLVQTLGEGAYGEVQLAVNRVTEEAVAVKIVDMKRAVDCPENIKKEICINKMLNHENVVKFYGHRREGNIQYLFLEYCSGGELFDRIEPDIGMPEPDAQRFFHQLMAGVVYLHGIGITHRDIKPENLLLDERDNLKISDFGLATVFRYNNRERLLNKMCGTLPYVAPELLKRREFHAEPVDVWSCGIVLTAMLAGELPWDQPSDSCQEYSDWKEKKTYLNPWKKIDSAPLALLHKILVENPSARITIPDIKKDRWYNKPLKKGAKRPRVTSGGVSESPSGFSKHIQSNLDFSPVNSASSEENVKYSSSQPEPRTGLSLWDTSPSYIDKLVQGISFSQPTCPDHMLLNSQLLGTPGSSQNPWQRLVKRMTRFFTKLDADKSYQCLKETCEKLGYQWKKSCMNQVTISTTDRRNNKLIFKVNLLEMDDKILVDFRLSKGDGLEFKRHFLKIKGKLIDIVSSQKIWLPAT

human Chk2 kinase = human Chk2 kinase (Homo sapiens, UniProt O96017); assay: biochemical
human Chk2 kinase, sequence (O96017 whole entry): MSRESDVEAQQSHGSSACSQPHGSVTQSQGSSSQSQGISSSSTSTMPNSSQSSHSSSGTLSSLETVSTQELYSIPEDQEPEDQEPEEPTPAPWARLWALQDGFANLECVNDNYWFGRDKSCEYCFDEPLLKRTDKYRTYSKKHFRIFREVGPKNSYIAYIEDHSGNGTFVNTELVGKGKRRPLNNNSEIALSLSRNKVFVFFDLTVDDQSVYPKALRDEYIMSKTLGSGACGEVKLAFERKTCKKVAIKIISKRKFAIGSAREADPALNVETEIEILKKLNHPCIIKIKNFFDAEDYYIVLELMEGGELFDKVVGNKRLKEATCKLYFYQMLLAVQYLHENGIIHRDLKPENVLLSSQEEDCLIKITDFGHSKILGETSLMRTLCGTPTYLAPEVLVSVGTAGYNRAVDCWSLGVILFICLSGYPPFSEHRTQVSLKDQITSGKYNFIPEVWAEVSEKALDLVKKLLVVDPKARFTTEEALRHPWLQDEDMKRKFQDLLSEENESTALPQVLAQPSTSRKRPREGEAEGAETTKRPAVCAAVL

IC50 (human Chk1 kinase) | IC50 (human Chk2 kinase) | SMILES
< 10 nM | 10000 to 100000 nM | CC(C)C1CN(C2CCN(c3ccc(-n4cnc(Nc5cnc(C#N)cn5)c4)cc3)C2)C1 (single isomer, unassigned) [Example 133, 5-((1-(4-(3-(3-Isopropylazetidin-1-yl)pyrrolidin-1-yl)phenyl)-1H-imidazol-4-yl)amino)pyrazine-2-carbonitrile]
316 to 1000 nM | > 100000 nM | COc1cc(CN2CC[C@@H](F)C2)cc(F)c1-n1cnc(Nc2cnc(C#N)cn2)c1 [Example 5, (R)-5-((1-(2-Fluoro-4-((3-fluoropyrrolidin-1-yl)methyl)-6-methoxyphenyl)-1H-imidazol-4-yl)amino)pyrazine-2-carbonitrile]
< 10 nM | 10000 to 100000 nM | COc1cc(N2CCN3CCC[C@H]3C2)ccc1-n1cnc(Nc2cnc(C#N)cn2)c1 [Example 30, (S)-5-((1-(4-(Hexahydropyrrolo[1,2-a]pyrazin-2(1H)-yl)-2-methoxyphenyl)-1H-imidazol-4-yl)amino)pyrazine-2-carbonitrile]
< 10 nM | 1000 to 10000 nM | CCN1CCN(c2ccc(-n3cnc(Nc4cnc(C#N)cn4)c3)c(OC)c2)CC1 [Example 27, 5-((1-(4-(4-Ethylpiperazin-1-yl)-2-methoxyphenyl)-1H-imidazol-4-yl)amino)pyrazine-2-carbonitrile]
10 to 31.6 nM | 1000 to 10000 nM | CCN[C@H]1CN(c2ccc(-n3cnc(Nc4cnc(C#N)cn4)c3)cc2)C[C@H]1F [Example 88, 5-((1-(4-((3S,4R)-3-(Ethylamino)-4-fluoropyrrolidin-1-yl)phenyl)-1H-imidazol-4-yl)amino)pyrazine-2-carbonitrile]
31.6 to 100 nM | 10000 to 100000 nM | CN(C)C1CCCN(c2cccc(-n3cnc(Nc4cnc(C#N)cn4)c3)c2)C1 (single isomer, unassigned) [Example 111, 5-((1-(3-(3-(Dimethylamino)piperidin-1-yl)phenyl)-1H-imidazol-4-yl)amino)pyrazine-2-carbonitrile]
31.6 to 100 nM | 10000 to 100000 nM | CN1CCC2(CC1)CCN(c1ccc(-n3cnc(Nc4cnc(C#N)cn4)c3)cc1)C2 [Example 60, 5-((1-(4-(8-Methyl-2,8-diazaspiro[4.5]decan-2-yl)phenyl)-1H-imidazol-4-yl)amino)pyrazine-2-carbonitrile]
< 10 nM | 10000 to 100000 nM | CN1C[C@@H]2CN(c3ccc(-n4cnc(Nc5cnc(C#N)cn5)c4)cc3)C[C@@H]2C1 [Example 101, 5-((1-(4-((3aR,6aS)-5-Methylhexahydropyrrolo[3,4-c]pyrrol-2(1H)-yl)phenyl)-1H-imidazol-4-yl)amino)pyrazine-2-carbonitrile]
100 to 316 nM | 10000 to 100000 nM | CN1CCCN(c2ccc(-n3cnc(Nc4cnc(C#N)cn4)c3)cn2)CC1 [Example 20, 5-((1-(6-(4-methyl-1,4-Diazepan-1-yl)pyridin-3-yl)-1H-imidazol-4-yl)amino)pyrazine-2-carbonitrile]
31.6 to 100 nM | 10000 to 100000 nM | CN1C[C@@H](F)[C@@H](OCc2ccc(-n3cnc(Nc4cnc(C#N)cn4)c3)cc2)C1 [Example 146, 5-((1-(4-((((3S,4R)-4-fluoro-1-Methylpyrrolidin-3-yl)oxy)methyl)phenyl)-1H-imidazol-4-yl)amino)pyrazine-2-carbonitrile]
10 to 31.6 nM | 10000 to 100000 nM | Cc1cc(-n2cnc(Nc3cnc(C#N)cn3)c2)ccc1N1CC[C@@H](N2CCC2)C1 [Example 104, (R)-5-((1-(4-(3-(Azetidin-1-yl)pyrrolidin-1-yl)-3-methylphenyl)-1H-imidazol-4-yl)amino)pyrazine-2-carbonitrile]
10 to 31.6 nM | 1000 to 10000 nM | N#Cc1cnc(Nc2cn(-c3ccc(N4CCC(N5CC(F)C5)C4)cc3)cn2)cn1 (single isomer, unassigned) [Example 130, 5-((1-(4-(3-(3-Fluoroazetidin-1-yl)pyrrolidin-1-yl)phenyl)-1H-imidazol-4-yl)amino)pyrazine-2-carbonitrile]
< 10 nM | 1000 to 10000 nM | COc1cc(N2CC[C@@H](N3CCC3)C2)ccc1-n1cnc(Nc2cnc(C#N)cn2)c1 [Example 103, (R)-5-((1-(4-(3-(Azetidin-1-yl)pyrrolidin-1-yl)-2-methoxyphenyl)-1H-imidazol-4-yl)amino)pyrazine-2-carbonitrile]
< 10 nM | 10000 to 100000 nM | CN1C[C@@H]2CC[C@H]1CN2c1ccc(-n2cnc(Nc3cnc(C#N)cn3)c2)cc1 [Example 42, 5-((1-(4-((1S,4S)-5-Methyl-2,5-diazabicyclo[2.2.2]octan-2-yl)phenyl)-1H-imidazol-4-yl)amino)pyrazine-2-carbonitrile]
10 to 31.6 nM | > 100000 nM | N#Cc1cnc(Nc2cn(-c3ccc(N4CCN5CCCC5C4)cc3)cn2)cn1 (single isomer, unassigned) [Example 117, 5-((1-(4-(Hexahydropyrrolo[1,2-a]pyrazin-2(1H)-yl)phenyl)-1H-imidazol-4-yl)amino)pyrazine-2-carbonitrile]
10 to 31.6 nM |  | CN[C@H]1CN(c2ccc(-n3cnc(Nc4cnc(C#N)cn4)c3)cc2)C[C@H]1OC [Example 163, 5-((1-(4-((3R,4S)-3-Methoxy-4-(methylamino)pyrrolidin-1-yl)phenyl)-1H-imidazol-4-yl)amino)pyrazine-2-carbonitrile]

IC50 (human Chk1 kinase) | IC50 (human Chk2 kinase) | SMILES
31.6 to 100 nM | 10000 to 100000 nM | CN1CCN(c2ccc(-n3cnc(Nc4cnc(C#N)cn4)c3)cc2F)CC1 [Example 21, 5-((1-(3-Fluoro-4-(4-methylpiperazin-1-yl)phenyl)-1H-imidazol-4-yl)amino)pyrazine-2-carbonitrile]
31.6 to 100 nM | 1000 to 10000 nM | CN1C[C@H]2CN(c3ccc(-n4cnc(Nc5cnc(C#N)cn5)c4)c(F)c3)[C@H]2C1 [Example 81, 5-((1-(2-Fluoro-4-((1S,5R)-3-methyl-3,6-diazabicyclo[3.2.0]heptan-6-yl)phenyl)-1H-imidazol-4-yl)amino)pyrazine-2-carbonitrile]
10 to 31.6 nM | 1000 to 10000 nM | CN1CCN(c2ccc(-n3cnc(Nc4cnc(C#N)cn4)c3)nc2)CC1 [Example 18, 5-((1-(5-(4-Methylpiperazin-1-yl)pyridin-2-yl)-1H-imidazol-4-yl)amino)pyrazine-2-carbonitrile]
100 to 316 nM | > 100000 nM | CN1CCN(Cc2ccc(-n3cnc(Nc4cnc(C#N)cn4)c3)cc2)CC1 [Example 7, 5-((1-(4-((4-Methylpiperazin-1-yl)methyl)phenyl)-1H-imidazol-4-yl)amino)pyrazine-2-carbonitrile]
31.6 to 100 nM | 10000 to 100000 nM | N#Cc1cnc(Nc2cn(-c3cccc(N4C[C@@H](N)[C@@H](F)C4)c3)cn2)cn1 [Example 151, 5-((1-(3-((3R,4S)-3-Amino-4-fluoropyrrolidin-1-yl)phenyl)-1H-imidazol-4-yl)amino)pyrazine-2-carbonitrile]
10 to 31.6 nM | 10000 to 100000 nM | COc1cc(N2CCN(C)C[C@@H]2C)ccc1-n1cnc(Nc2cnc(C#N)cn2)c1 [Example 31, (S)-5-((1-(4-(2,4-Dimethylpiperazin-1-yl)-2-methoxyphenyl)-1H-imidazol-4-yl)amino)pyrazine-2-carbonitrile]
10 to 31.6 nM | 10000 to 100000 nM | C[C@@H]1CCN1C1CCN(c2ccc(-n3cnc(Nc4cnc(C#N)cn4)c3)cc2)C1 (single isomer, unassigned) [Example 135]
31.6 to 100 nM | 10000 to 100000 nM | CN1CCCN(c2cccc(-n3cnc(Nc4cnc(C#N)cn4)c3)c2)CC1 [Example 33, 5-((1-(3-(4-Methyl-1,4-diazepan-1-yl)phenyl)-1H-imidazol-4-yl)amino)pyrazine-2-carbonitrile]
10 to 31.6 nM |  | CCN1CCN(c2ccc(-n3cnc(Nc4cnc(C#N)cn4)c3)cc2)CC1 [Example 185, 5-((1-(4-(4-Ethylpiperazin-1-yl)phenyl)-1H-imidazol-4-yl)amino)pyrazine-2-carbonitrile]
100 to 316 nM |  | CN1CCN(C(=O)c2ccc(-n3cnc(Nc4cnc(C#N)cn4)c3)cc2)CC1 [Example 144, 5-((1-(4-(4-Methylpiperazine-1-carbonyl)phenyl)-1H-imidazol-4-yl)amino)pyrazine-2-carbonitrile]
10 to 31.6 nM |  | CN1CC2(C1)CN(c1ccc(-n3cnc(Nc4cnc(C#N)cn4)c3)cc1)C2 [Example 11, 5-((1-(4-(6-Methyl-2,6-diazaspiro[3.3]heptan-2-yl)phenyl)-1H-imidazol-4-yl)amino)pyrazine-2-carbonitrile]
10 to 31.6 nM |  | N#Cc1cnc(Nc2cn(-c3ccc(N4CC[C@@H](N5CCCC5)C4)cc3)cn2)cn1 [Example 147, (R)-5-((1-(4-([1,3′-Bipyrrolidin]-1′-yl)phenyl)-1H-imidazol-4-yl)amino)pyrazine-2-carbonitrile]
316 to 1000 nM |  | Cc1cc(N2CCN(C)CC2)ccc1-n1cnc(Nc2cnc(C#N)cn2)c1 [Example 145, 5-((1-(2-methyl-4-(4-Methylpiperazin-1-yl)phenyl)-1H-imidazol-4-yl)amino)pyrazine-2-carbonitrile]
31.6 to 100 nM |  | CN(C)CC1CCN(c2ccc(-n3cnc(Nc4cnc(C#N)cn4)c3)cc2)C1 (single isomer, unassigned) [Example 115, 5-((1-(4-(3-((Dimethylamino)methyl)pyrrolidin-1-yl)phenyl)-1H-imidazol-4-yl)amino)pyrazine-2-carbonitrile]
31.6 to 100 nM |  | CN(C)[C@H]1CCN(c2ccc(-n3cnc(Nc4cnc(C#N)cn4)c3)cc2)C1 [Example 15, (S)-5-((1-(4-(3-(Dimethylamino)pyrrolidin-1-yl)phenyl)-1H-imidazol-4-yl)amino)pyrazine-2-carbonitrile]
